Results reported in patent publication US20030069271A1, “Quinolone compounds for use in treating viral infections” (priority 1999, published 2003).

Test system: HIV
Assay: Anti-HIV activity in MT4 cells (method of Averett, J. Virol. Methods 1989)
Type: cell-based
Settings: Human immunodeficiency virus 1, read-out: Activity Range (IC50)
Method: The compounds of the present invention were tested for anti-HIV activity in MT4 cells according to the method described by Averett, D. R., J. Virol.

| SMILES | IC50 [µM] |
| --- | --- |
| CCCc1c(OC2CCCCC2)c2cc(Cl)ccc2[nH]c1=O [Example 1, 6-Chloro-4-(cyclohexyloxy)-3-propyl-2(1H)-quinolinone] | 0.005 to 0.1 |
| CCCc1c(OCC2CC2)c2cc(Cl)ccc2[nH]c1=O [Example 3, 6-Chloro-4-(cyclopropylmethoxy)-3-propyl-2(1H)-quinolinone] | 0.1 to 0.5 |
| CCCc1c(OCC2CCCCC2)c2cc(Cl)ccc2[nH]c1=O [Example 5, 6-Chloro-4(cyclohexylmethoxy)-3-propyl-2(1H)-quinolinone] | 0.5 to 2 |
| CCCc1c(OCC2OCCO2)c2cc(Cl)ccc2[nH]c1=O [Example 6, 6-Chloro-4-(1,3-dioxolan-2-ylmethoxy)-3-propyl-2(1H)-quinolinone] | 0.5 to 2 |
| CC(C)c1c(OC2CCCCC2)c2cc(Cl)ccc2[nH]c1=O [Example 9, 6-Chloro-4-(cyclohexyloxy)-3-isopropyl-2(1H)-quinolinone] | 0.005 to 0.1 |
| CCCc1c(OC2CCCC2)c2cc(C)ccc2[nH]c1=O [Example 10, 4-Cyclopentyloxy-6-methyl-3-propyl-2(1H)-quinolinone] | 0.5 to 2 |
| CCCc1c(OC2CCCCC2)c2cc(Cl)ccc2[nH]c1=S [Example 20, 6-Chloro-4-(cyclohexyloxy)-3-propyl-2(1H)-quinolinethione] | 0.005 to 0.1 |
| CCCc1c([S+]([O-])C2CCCCC2)c2cc(Cl)ccc2[nH]c1=O (centres unmarked) [Example 24, 6-Chloro-4-(cyclohexylsulfinyl)-3-propyl-2(1H)-quinolinone] | 0.1 to 0.5 |
| CCCc1c(OC#CC2CC2)c2cc(Cl)ccc2[nH]c1=O [Example 35, 6-Chloro-4-[(2-cyclopropylethynyl)oxy]-3-propyl-2(1H)-quinolinone] | 0.005 to 0.1 |
| CC(C)c1c(OC#CC2CC2)c2cc(F)ccc2[nH]c1=O [Example 36, 4-[(2-Cyclopropylethynyl)oxy]-6-fluoro-3-(isopropyl)-2(1H)-quinolinone] | 0.005 to 0.1 |
| CCCc1c(OC#CC2CC2)c2cc(F)ccc2[nH]c1=O [Example 37, 4-[(2-Cyclopropylethynyl)oxy]-6-fluoro-3-propyl-2(1H)-quinolinone] | 0.005 to 0.1 |
| CCc1c(OC#CC2CC2)c2cc(F)ccc2[nH]c1=O [Example 45, 4-[(2-Cyclopropylethynyl)oxy]-3-ethyl-6-fluoro-2(1H)-quinolinone] | 0.005 to 0.1 |
| CC(C)c1c(OC#CC2CC2)c2cc(Cl)ccc2[nH]c1=O [Example 46, 6-Chloro-4-[(2-Cyclopropylethynyl)oxy]-3-isopropyl-2(1H)-quinolinone] | 0.005 to 0.1 |

Same assay, conditions: read-out: Activity Range (IC50)

| SMILES | IC50 [µM] |
| --- | --- |
| CC(C)Cc1c(OC#CC2CC2)c2cc(F)ccc2[nH]c1=O [Example 47, 4-[(2-Cyclopropylethynyl)oxy]-6-fluoro-3-isobutyl-2(1,H)-quinolinone] | 0.005 to 0.1 |
